{"source": "patent US8865756B2", "about": "“Inhibitors of HCV NS5A” (Presidio Pharmaceuticals, Inc., priority 2008, dated 2014)"}
{"tested_on": "HCV 1b_Huh-Luc/Neo-ET cell line persistently expressing a bicistronic genotype 1b replicon in Huh 7 cells", "experiment": "HCV replicon assay (luciferase readout)", "format": "cell-based", "conditions": "Hepatitis C virus, Huh-7, 72 h, read-out: Inhibition of HCV genotype 1b", "procedure": "Biological activity of the compounds of the invention was determined using an HCV replicon assay. The HCV 1b_Huh-Luc/Neo-ET cell line persistently expressing a bicistronic genotype 1b replicon in Huh 7 cells was obtained from ReBLikon GMBH. This cell line was used to test compound inhibition using luciferase enzyme activity readout as a measurement of compound inhibition of replicon levels.\nOn Day 1 (the day after plating), each compound is added in triplicate to the cells. Plates incubated for 72 h prior to running the luciferase assay. Enzyme activity was measured using a Bright-Glo Kit (cat. number E2620) manufactured by Promega Corporation. The following equation was used to generate a percent control value for each compound. % Control=(Average Compound Value/Average Control)*100\nThe EC50 value was determined using GraphPad Prism and the following equation: Y=Bottom+(Top−Bottom)/(1+10^((Log IC50−X)*HillSlope))\nEC50 values of compounds are determined several times in the replicon assay.\nExample compounds of the disclosed invention are illustrated in Tables 1-14 attached as appendices. The tables show inhibitory activity of many of the example compounds with respect to HCV 1b. […] The tables further provide mass spectrometry results for the synthesized example compounds.", "units": {"EC50": "nM"}}
{"compound": "COC(=O)N[C@@H](C(=O)N1CCC[C@H]1c1ncc(-c2ccc(C#Cc3ccc(-c4cnc([C@@H]5CCCN5C(=O)[C@@H](c5ccccc5)N5CCCC5)[nH]4)cc3)cc2)[nH]1)c1ccccc1", "note": "[Compound 178]", "EC50": "< 1"}
{"compound": "COC(=O)N[C@@H](C(=O)N1CCC[C@H]1c1ncc(-c2ccc(C#Cc3ccc(-c4cnc([C@@H]5CCCN5C(=O)[C@H](C(C)C)N5CCOC5=O)[nH]4)cc3)cc2)[nH]1)c1ccccc1", "note": "[Compound 1005]", "EC50": "< 1"}
{"compound": "COC(=O)N[C@H](C(=O)N1CCC[C@H]1c1ncc(-c2ccc(C#Cc3ccc(-c4cnc([C@@H]5CCCN5C(=O)[C@@H](c5ccccc5)N5CCC(O)CC5)[nH]4)cc3)cc2)[nH]1)C(C)C", "note": "[Compound 956]", "EC50": "< 1"}
{"compound": "COC(=O)N[C@@H](C(=O)N1CCC[C@H]1c1ncc(-c2ccc(C#Cc3ccc(-c4cnc([C@@H]5CCCN5C(=O)C5CCN(C)CC5)[nH]4)cc3)cc2)[nH]1)c1ccccc1", "note": "[Compound 182]", "EC50": "< 1"}
{"compound": "COC(=O)N[C@@H](C(=O)N(C)[C@@H](C)c1ncc(-c2ccc(C#Cc3ccc(-c4cnc([C@@H]5CCCN5C(=O)[C@H](NC(=O)OC)c5ccccc5)[nH]4)cc3)cc2)[nH]1)c1ccccc1", "note": "[Compound 274]", "EC50": "< 1"}
{"compound": "COC(=O)N[C@@H](C(=O)N1CCC[C@H]1c1ncc(-c2ccc(C#Cc3ccc(-c4cnc([C@@H]5CCCN5C(=O)[C@H](NC(=O)N5CC[C@H](F)C5)c5ccccc5)[nH]4)cc3)cc2)[nH]1)c1ccccc1", "note": "[Compound 270]", "EC50": "< 1"}
{"compound": "COC(=O)N[C@@H](C(=O)N1CCC[C@H]1CNC(=O)c1ccc(C#Cc2ccc(-c3cnc([C@@H]4CCCN4C(=O)[C@H](NC(=O)OC)c4ccccc4)[nH]3)cc2)cc1)c1ccccc1", "note": "[Compound 211]", "EC50": "< 1"}
{"compound": "COC(=O)N[C@H](C(=O)N1CCC[C@H]1c1ncc(-c2ccc(C#Cc3ccc4nc([C@@H]5CCCN5)[nH]c4c3)cc2)[nH]1)C(C)C", "note": "[Compound 1056]", "EC50": "10 to 999"}
{"compound": "CC(C)(C)OC(=O)N[C@@H](C(=O)N1CCC[C@H]1c1cc(-c2ccc(C#Cc3ccc(-c4cnc([C@@H]5CCCN5C(=O)[C@H](NC(=O)OC(C)(C)C)c5ccccc5)[nH]4)cc3)cc2)n[nH]1)c1ccccc1", "note": "[Compound 210]", "EC50": "< 1"}
{"compound": "CN1CCN(C(=O)N[C@@H](C(=O)N2CCC[C@H]2c2ncc(C#Cc3ccc(C#Cc4cnc([C@@H]5CCCN5C(=O)[C@H](NC(=O)N5CCN(C)CC5)c5ccccc5)[nH]4)cc3)[nH]2)c2ccccc2)CC1", "note": "[Compound 310]", "EC50": "1 to 9.9"}
{"compound": "CC(=O)N[C@@H](C(=O)N1CCC[C@H]1c1ncc(C#Cc2ccc(C#Cc3cnc([C@@H]4CCCN4C(=O)[C@H](NC(C)=O)c4ccccc4)[nH]3)cc2)[nH]1)c1ccccc1", "note": "[Compound 306]", "EC50": "< 1"}
{"compound": "CC(C)[C@H](NC(=O)N1CCCC1)C(=O)N1CCC[C@H]1c1ncc(-c2ccc(C#Cc3ccc(-c4cnc([C@@H]5CCCN5C(=O)[C@@H](NC(=O)N5CCCC5)C(C)C)[nH]4)cc3)cc2)[nH]1", "note": "[Compound 288]", "EC50": "> 1000"}
{"compound": "COC(=O)N[C@H](C(=O)N1CCSC[C@H]1c1ncc(-c2ccc(C#Cc3ccc4nc([C@@H]5CCCN5C(=O)[C@@H](NC(=O)OC)C(C)C)[nH]c4c3)cc2)[nH]1)C(C)C", "note": "[Compound 1062]", "EC50": "< 1"}
{"compound": "COC(=O)N[C@@H](C(=O)N1CCC[C@H]1c1ncc(-c2ccc(C#Cc3ccc(-c4cnc([C@@H]5CCCN5C(=O)[C@H](NC(=O)[C@H]5CCCN5)c5ccccc5)[nH]4)cc3)cc2)[nH]1)c1ccccc1", "note": "[Compound 207]", "EC50": "< 1"}
{"compound": "COC[C@H](NC(=O)OC)C(=O)N1CCC[C@H]1c1ncc(-c2ccc(C#Cc3ccc(-c4cnc([C@@H]5CCCN5C(=O)[C@H](COC)NC(=O)OC)[nH]4)cc3)cc2)[nH]1", "note": "[Compound 976]", "EC50": "< 1"}
{"compound": "COC(=O)NC1(C(=O)N2CCC[C@H]2c2ncc(-c3ccc(C#Cc4ccc5nc([C@@H]6CCCN6C(=O)C6(NC(=O)OC)CCCC6)[nH]c5c4)cc3)[nH]2)CCCC1", "note": "[Compound 1044]", "EC50": "10 to 999"}
{"compound": "CCN(CC)[C@@H](C(=O)N1CCC[C@H]1c1ncc(-c2ccc(C#Cc3ccc(-c4cnc([C@@H]5CCCN5C(=O)[C@H](NC(=O)OC)c5ccccc5)[nH]4)cc3)cc2)[nH]1)c1ccccc1", "note": "[Compound 175]", "EC50": "< 1"}
{"compound": "CC(C)[C@@H](NC(=O)OC(C)(C)C)C(=O)N1CCC[C@H]1c1ncc(C#Cc2ccc(C#Cc3cnc([C@@H]4CCCN4C(=O)[C@H](NC(=O)OC(C)(C)C)C(C)C)[nH]3)cc2)[nH]1", "note": "[Compound 301]", "EC50": "> 1000"}
{"compound": "COC(=O)N[C@H](C(=O)N1CCC[C@H]1c1ncc(-c2ccc(C#Cc3ccc(-c4cnc([C@@H]5CCCN5C(=O)[C@@H](c5ccccc5)N5CCOCC5)[nH]4)cc3)cc2)[nH]1)C(C)C", "note": "[Compound 987]", "EC50": "< 1"}
{"compound": "CC(C)[C@@H](NC(=O)N1CCCC1)C(=O)N1CCC[C@H]1c1ncc(-c2ccc(C#Cc3ccc(-c4cnc([C@@H]5CCCN5C(=O)[C@H](NC(=O)N5CCCC5)C(C)C)[nH]4)cc3)cc2)[nH]1", "note": "[Compound 293]", "EC50": "> 1000"}
{"compound": "COC(=O)N[C@H](C(=O)N[C@@H](C)c1nc2ccc(C#Cc3ccc(-c4cnc([C@@H]5CCCN5C(=O)[C@@H](NC(=O)OC)C(C)C)[nH]4)cc3)cc2[nH]1)C(C)C", "note": "[Compound 867]", "EC50": "< 1"}
{"compound": "O=C(N[C@@H](C(=O)N1CCC[C@H]1c1ncc(-c2ccc(C#Cc3ccc(-c4cnc([C@@H]5CCCN5C(=O)[C@@H](c5ccccc5)N5CCCC5)[nH]4)cc3)cc2)[nH]1)c1ccccc1)C1CC1", "note": "[Compound 217]", "EC50": "< 1"}
{"compound": "CN1CCN(C(=O)N[C@@H](C(=O)N2CCC[C@H]2c2cc(-c3ccc(C#Cc4ccc(-c5cnc([C@@H]6CCCN6C(=O)[C@H](NC(=O)N6CCN(C)CC6)c6ccccc6)[nH]5)cc4)cc3)n[nH]2)c2ccccc2)CC1", "note": "[Compound 213]", "EC50": "< 1"}
{"compound": "CC(C)(C)OC(=O)N[C@@H](C(=O)N1CCC[C@H]1c1ncc(-c2ccc(C#Cc3ccc(-c4nnc([C@@H]5CCCN5C(=O)[C@H](NC(=O)OC(C)(C)C)c5ccccc5)[nH]4)cc3)cc2)[nH]1)c1ccccc1", "note": "[Compound 246]", "EC50": "< 1"}
{"compound": "C[C@@H](NC(=O)[C@@H]1CCCN1C(=O)[C@H](NC(=O)OC(C)(C)C)c1ccccc1)c1ccc(C#Cc2ccc(-c3cnc([C@@H]4CCCN4C(=O)[C@H](NC(=O)OC(C)(C)C)c4ccccc4)[nH]3)cc2)cc1", "note": "[Compound 167]", "EC50": "1 to 9.9"}
{"compound": "COC(=O)N[C@@H](C(=O)N1CCC[C@H]1c1ncc(-c2ccc(C#Cc3ccc(-c4cnc([C@@H]5CCCN5C(=O)[C@@H](c5ccccc5)N5CCCCC5)[nH]4)cc3)cc2)[nH]1)c1ccccc1", "note": "[Compound 188]", "EC50": "< 1"}
{"compound": "CC(C)(C)OC(=O)N[C@@H](C(=O)N1CCC[C@H]1C(=O)NCc1ccc(C#Cc2cnc([C@@H]3CCCN3C(=O)[C@H](NC(=O)OC(C)(C)C)c3ccccc3)[nH]2)cc1)c1ccccc1", "note": "[Compound 119]", "EC50": "< 1"}
{"compound": "COC(=O)N[C@@H](C(=O)N1CCC[C@H]1c1ncc(C#Cc2ccc(-c3ccc(-c4cnc([C@@H]5CCCN5C(=O)[C@@H](c5ccccc5)N5CCOCC5)[nH]4)cc3)cc2)[nH]1)c1ccccc1", "note": "[Compound 758]", "EC50": "< 1"}
{"compound": "CC(C)[C@@H](NC(=O)C1CC1)C(=O)N1CCC[C@H]1c1ncc(-c2ccc(C#Cc3ccc(-c4cnc([C@@H]5CCCN5C(=O)[C@H](NC(=O)C5CC5)C(C)C)[nH]4)cc3)cc2)[nH]1", "note": "[Compound 155]", "EC50": "1 to 9.9"}
{"compound": "COC(=O)N[C@H](C(=O)N1CCC[C@H]1c1ncc(-c2ccc(C#Cc3ccc(-c4cnc([C@@H]5CCCN5C(=O)[C@@H](Nc5ncccn5)C(C)C)[nH]4)cc3)cc2)[nH]1)C(C)C", "note": "[Compound 1003]", "EC50": "< 1"}
{"compound": "COC(=O)N[C@@H](C(=O)N1CCC[C@H]1c1ncc(-c2ccc(C#Cc3ccc(-c4cnc([C@@H]5CCCN5C(=O)[C@H](NC(=O)N5CC[C@@H](OC)C5)c5ccccc5)[nH]4)cc3)cc2)[nH]1)c1ccccc1", "note": "[Compound 271]", "EC50": "< 1"}
{"compound": "COC(=O)N[C@H](C(=O)N1CCC[C@H]1c1ncc(-c2ccc(C#Cc3ccc(-c4cnc([C@@H]5CCCN5C(=O)[C@H](C(C)C)N(C)C)[nH]4)cc3)cc2)[nH]1)C(C)C", "note": "[Compound 953]", "EC50": "1 to 9.9"}
{"compound": "O=C(N[C@@H](C(=O)N1CCC[C@H]1C(=O)NCc1ccc(C#Cc2ccc(-c3cnc([C@@H]4CCCN4C(=O)[C@H](NC(=O)C4CC4)c4ccccc4)[nH]3)cc2)cc1)c1ccccc1)C1CC1", "note": "[Compound 190]", "EC50": "< 1"}
{"compound": "COC(=O)N[C@@H](C(=O)N1CCC[C@H]1C(=O)Nc1ccc(C#Cc2ccc(-c3cnc([C@@H]4CCCN4C(=O)[C@H](NC(=O)OC)c4ccccc4)[nH]3)cc2)cc1)c1ccccc1", "note": "[Compound 171]", "EC50": "< 1"}
{"compound": "COC(=O)N[C@@H](Cc1cnc[nH]1)C(=O)N1CCC[C@H]1c1ncc(-c2ccc(C#Cc3ccc4nc([C@@H]5CCCN5C(=O)[C@H](Cc5cnc[nH]5)NC(=O)OC)[nH]c4c3)cc2)[nH]1", "note": "[Compound 1048]", "EC50": "1 to 9.9"}
{"compound": "COC(=O)N[C@@H](C(=O)N1CCC[C@H]1c1ncc(-c2ccc(C#Cc3ccc(-c4cnc([C@@H]5CCCN5C(=O)[C@H](NC(=O)[C@@H]5CCCN5C)c5ccccc5)[nH]4)cc3)cc2)[nH]1)c1ccccc1", "note": "[Compound 203]", "EC50": "< 1"}
{"compound": "COC(=O)N[C@@H](C(=O)N1CCC[C@H]1c1ncc(C#Cc2ccc(C#Cc3cnc([C@@H]4CCCN4C(=O)[C@@H](c4ccccc4)N4CCOCC4)[nH]3)cc2)[nH]1)c1ccccc1", "note": "[Compound 313]", "EC50": "< 1"}
{"compound": "COC(=O)N[C@H](C(=O)N1CCC[C@H]1c1nc2ccc(C#Cc3ccc(-c4cnc([C@@H]5CCCN5)[nH]4)cc3)cc2[nH]1)C(C)C", "note": "[Compound 1055]", "EC50": "10 to 999"}
{"compound": "COC[C@H](NC(=O)OC)C(=O)N1CCC[C@H]1c1ncc(-c2ccc(C#Cc3ccc4nc([C@@H]5CCCN5C(=O)[C@H](COC)NC(=O)OC)[nH]c4c3)cc2)[nH]1", "note": "[Compound 1037]", "EC50": "< 1"}
